Experimental data: ChEMBL document CHEMBL4619774 (J Med Chem, 2020)

Assays:
Plasma kallikrein = Plasma kallikrein (Homo sapiens, UniProt P03952); format: single protein
Coagulation factor XI = Coagulation factor XI (Homo sapiens, UniProt P03951); experiment: Inhibition of […] human plasma F11a catalytic domain expressed in Escherichia coli strain BL21(DE3) using D-Leu-Pro-Arg*Rh110-D-Pro as substrate preincubated for 60 mins followed by substrate addition and measured after 60 mins by fluorescence assay
[1] = Apparent permeability across apical to basolateral side in MDCK-MDR1 cells; format: ADME, cell-based, Canis lupus familiaris; conditions: dog
[2] = Dose normalized AUC in C57BL/6 mouse at 1 mg/kg, iv by LC-MS/MS analysis; format: ADME, organism-based; conditions: in vivo
Coagulation factor IX = Coagulation factor IX (Homo sapiens, UniProt P00740); format: single protein
Prothrombin = Prothrombin (Homo sapiens, UniProt P00734); format: single protein
[3] = target: Tissue-type plasminogen activator (Homo sapiens, UniProt P00750); format: single protein
Plasminogen = Plasminogen (Homo sapiens, UniProt P00747); format: single protein
[4] = target: Prostaglandin G/H synthase 1 (Homo sapiens, UniProt P23219); experiment: Inhibition of COX1 (unknown origin)
[5] = target: 3',5'-cyclic-AMP phosphodiesterase 4D (Homo sapiens, UniProt Q08499); experiment: Inhibition of PDE4D (unknown origin)
[6] = Clearance in C57BL/6 mouse at 0.4 mg/kg, iv bolus injection or 3 mg/kg, po by LC-MS/MS analysis; format: ADME, organism-based; conditions: in vivo
[7] = Volume of distribution at steady state in C57BL/6 mouse at 0.4 mg/kg, iv bolus injection or 3 mg/kg, po by LC-MS/MS analysis; format: ADME, organism-based; conditions: in vivo, read-out: Vdss
[8] = Terminal half life in C57BL/6 mouse at 0.4 mg/kg, iv bolus injection or 3 mg/kg, po by LC-MS/MS analysis; format: ADME, organism-based; conditions: in vivo, read-out: beta t1/2 (converted)
[9] = Dose normalized Cmax in C57BL/6 mouse at 0.4 mg/kg, iv bolus injection or 3 mg/kg, po by LC-MS/MS analysis; format: ADME, organism-based; conditions: in vivo
[10] = Tmax in C57BL/6 mouse at 0.4 mg/kg, iv bolus injection or 3 mg/kg, po by LC-MS/MS analysis; format: ADME, organism-based; conditions: in vivo
[11] = Dose normalized AUC in C57BL/6 mouse at 100 mg/kg, po by LC-MS/MS analysis; format: ADME, organism-based; conditions: in vivo
[12] = Oral bioavailability in C57BL/6 mouse at 100 mg/kg by LC-MS/MS analysis; format: ADME, organism-based; conditions: in vivo
[13] = Dose normalized Cmax in C57BL/6 mouse at 100 mg/kg, po by LC-MS/MS analysis; format: ADME, organism-based; conditions: in vivo
[14] = Tmax in C57BL/6 mouse at 100 mg/kg, po by LC-MS/MS analysis; format: ADME, organism-based; conditions: in vivo
[15] = Dose normalized Cmax in Sprague-Dawley rat at 3 mg/kg, po via gavage by HPLC-MS/MS analysis; format: ADME, organism-based; conditions: in vivo
[16] = Dose normalized Cmax in Sprague-Dawley rat at 100 mg/kg, po via gavage by HPLC-MS/MS analysis; format: ADME, organism-based; conditions: in vivo
[17] = Dose normalized AUC (0 to t) in Sprague-Dawley rat at 100 mg/kg, po via gavage by HPLC-MS/MS analysis; format: ADME, organism-based; conditions: in vivo
[18] = Oral bioavailability in Sprague-Dawley rat at 3 mg/kg via gavage by HPLC-MS/MS analysis; format: ADME, organism-based; conditions: in vivo
[19] = Oral bioavailability in Sprague-Dawley rat at 100 via gavage mg/kg by HPLC-MS/MS analysis; format: ADME, organism-based; conditions: in vivo, 100 mg/kg
[20] = Dose normalized Cmax in beagle dog at 10 mg/kg, po via gavage by HPLC-MS/MS analysis; format: ADME, organism-based, Canis lupus familiaris; conditions: in vivo
[21] = Dose normalized Cmax in beagle dog at 75 mg/kg, po via gavage by HPLC-MS/MS analysis; format: ADME, organism-based, Canis lupus familiaris; conditions: in vivo
[22] = Dose normalized AUC (0 to t) in beagle dog at 75 mg/kg, po via gavage by HPLC-MS/MS analysis; format: ADME, organism-based, Canis lupus familiaris; conditions: in vivo
[23] = Oral bioavailability in beagle dog at 10 mg/kg via gavage by HPLC-MS/MS analysis; format: ADME, organism-based, Canis lupus familiaris; conditions: in vivo
[24] = Clearance in Sprague-Dawley rat at 1 mg/kg, iv by HPLC-MS/MS analysis; format: ADME, organism-based; conditions: in vivo
[25] = AUC (0 to t) in Sprague-Dawley rat at 1 mg/kg, iv administered as bolus dose by HPLC-MS/MS analysis; format: ADME, organism-based; conditions: in vivo
[26] = Volume of distribution at steady state in Sprague-Dawley rat at 1 mg/kg, iv administered as bolus dose by HPLC-MS/MS analysis; format: ADME, organism-based; conditions: in vivo, read-out: Vdss
[27] = Half life in Sprague-Dawley rat at 1 mg/kg, iv administered as bolus dose by HPLC-MS/MS analysis; format: ADME, organism-based; conditions: in vivo
[28] = Volume of distribution at steady state in beagle dog at 1 mg/kg, iv by HPLC-MS/MS analysis; format: ADME, organism-based, Canis lupus familiaris; conditions: in vivo, read-out: Vdss
[29] = Half life in beagle dog at 1 mg/kg, iv by HPLC-MS/MS analysis; format: ADME, organism-based, Canis lupus familiaris; conditions: in vivo
Bile salt export pump = Bile salt export pump (Homo sapiens, UniProt O95342); experiment: Inhibition of BSEP (unknown origin)
[30] = target: T1, Peroxisome proliferator-activated receptor gamma (Homo sapiens) (UniProt P37231); experiment: Binding affinity to PPARgamma (unknown origin) at 10 uM
T1 sequence (whole entry): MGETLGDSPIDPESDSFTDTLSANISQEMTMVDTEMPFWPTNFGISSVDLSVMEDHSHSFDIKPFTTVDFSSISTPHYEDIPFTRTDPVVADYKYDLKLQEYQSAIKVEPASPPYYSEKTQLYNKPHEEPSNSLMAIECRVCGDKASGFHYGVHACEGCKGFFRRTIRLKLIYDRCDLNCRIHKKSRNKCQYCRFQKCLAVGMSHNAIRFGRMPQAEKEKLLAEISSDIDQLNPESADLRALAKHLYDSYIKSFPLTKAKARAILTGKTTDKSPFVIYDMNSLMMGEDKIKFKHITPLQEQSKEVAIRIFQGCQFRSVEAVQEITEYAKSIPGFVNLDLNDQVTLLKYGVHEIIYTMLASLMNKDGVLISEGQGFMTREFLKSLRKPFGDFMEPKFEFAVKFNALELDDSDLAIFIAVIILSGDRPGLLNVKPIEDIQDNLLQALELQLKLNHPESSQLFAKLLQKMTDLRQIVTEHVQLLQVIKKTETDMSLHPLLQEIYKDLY

[31] = Efflux ratio of apparent permeability from basolateral to apical side over apical to basolateral side in MDCK-MDR1 cells; format: ADME, cell-based, Canis lupus familiaris; conditions: dog
Plasma = experiment: Anticoagulant activity in human plasma assessed as concentration required to double the activated partial thromboplastin time incubated for 3 mins followed by calcium chloride addition by aPTT-s reagent based automated coagulometric method; format: functional
physchem = conditions: buffer, pH 7.4

Chain of Tissue-type plasminogen activator (P00750 whole entry): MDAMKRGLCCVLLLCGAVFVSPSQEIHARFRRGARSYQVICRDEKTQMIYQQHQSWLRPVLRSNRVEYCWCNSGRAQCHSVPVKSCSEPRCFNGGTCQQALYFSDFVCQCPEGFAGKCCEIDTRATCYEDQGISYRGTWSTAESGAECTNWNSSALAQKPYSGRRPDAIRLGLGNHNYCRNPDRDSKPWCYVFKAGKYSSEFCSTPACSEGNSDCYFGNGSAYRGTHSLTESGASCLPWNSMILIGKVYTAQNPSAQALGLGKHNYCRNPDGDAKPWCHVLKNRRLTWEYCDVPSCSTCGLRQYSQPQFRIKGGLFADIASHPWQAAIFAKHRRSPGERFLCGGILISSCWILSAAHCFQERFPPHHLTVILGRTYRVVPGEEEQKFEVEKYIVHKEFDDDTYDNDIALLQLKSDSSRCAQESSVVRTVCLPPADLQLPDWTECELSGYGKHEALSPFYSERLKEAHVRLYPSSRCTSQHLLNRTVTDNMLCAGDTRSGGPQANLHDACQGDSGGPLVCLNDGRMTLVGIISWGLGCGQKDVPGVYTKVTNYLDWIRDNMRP
Chain of 3',5'-cyclic-AMP phosphodiesterase 4D (Q08499 whole entry): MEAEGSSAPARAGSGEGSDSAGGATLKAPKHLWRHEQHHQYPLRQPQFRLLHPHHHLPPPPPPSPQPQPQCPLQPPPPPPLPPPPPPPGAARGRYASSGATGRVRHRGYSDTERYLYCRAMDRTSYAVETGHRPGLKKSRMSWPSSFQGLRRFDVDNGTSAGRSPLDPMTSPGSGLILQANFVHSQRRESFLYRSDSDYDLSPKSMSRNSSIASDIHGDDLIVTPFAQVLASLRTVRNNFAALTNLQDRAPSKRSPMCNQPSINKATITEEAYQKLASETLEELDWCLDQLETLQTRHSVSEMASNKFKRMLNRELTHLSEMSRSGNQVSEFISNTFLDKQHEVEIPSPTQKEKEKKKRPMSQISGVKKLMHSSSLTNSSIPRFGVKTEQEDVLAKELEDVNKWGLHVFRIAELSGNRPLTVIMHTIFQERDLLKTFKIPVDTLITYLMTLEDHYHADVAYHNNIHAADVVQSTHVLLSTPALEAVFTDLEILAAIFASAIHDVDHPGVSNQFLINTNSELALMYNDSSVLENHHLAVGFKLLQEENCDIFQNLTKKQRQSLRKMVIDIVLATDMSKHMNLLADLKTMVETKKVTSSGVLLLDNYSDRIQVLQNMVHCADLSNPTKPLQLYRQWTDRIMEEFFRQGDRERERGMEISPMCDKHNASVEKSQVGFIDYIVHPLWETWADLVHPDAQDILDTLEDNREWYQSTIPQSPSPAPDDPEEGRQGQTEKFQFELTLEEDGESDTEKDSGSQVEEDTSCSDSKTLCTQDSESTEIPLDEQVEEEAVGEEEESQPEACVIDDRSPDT
Chain of Coagulation factor XI (P03951 19-387 limits assumed): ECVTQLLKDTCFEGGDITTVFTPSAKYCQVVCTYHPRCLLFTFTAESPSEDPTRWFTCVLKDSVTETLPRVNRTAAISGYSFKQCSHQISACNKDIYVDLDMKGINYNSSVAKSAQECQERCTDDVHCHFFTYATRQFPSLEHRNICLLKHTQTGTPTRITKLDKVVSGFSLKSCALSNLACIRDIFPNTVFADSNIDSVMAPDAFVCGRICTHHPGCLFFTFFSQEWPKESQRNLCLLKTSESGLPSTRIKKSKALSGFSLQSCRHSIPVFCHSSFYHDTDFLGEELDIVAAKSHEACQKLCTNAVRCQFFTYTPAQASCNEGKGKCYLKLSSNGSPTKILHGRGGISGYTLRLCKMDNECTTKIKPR
Chain of Coagulation factor XI (P03951 388-625 limits assumed): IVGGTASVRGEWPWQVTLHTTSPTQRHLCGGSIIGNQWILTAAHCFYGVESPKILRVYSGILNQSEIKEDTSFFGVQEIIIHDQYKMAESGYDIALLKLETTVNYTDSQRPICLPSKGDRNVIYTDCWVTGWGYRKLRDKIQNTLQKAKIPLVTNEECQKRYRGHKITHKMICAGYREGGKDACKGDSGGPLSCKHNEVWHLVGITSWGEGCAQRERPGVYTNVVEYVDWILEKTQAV
Chain of Plasminogen (P00747 97-580 limits assumed): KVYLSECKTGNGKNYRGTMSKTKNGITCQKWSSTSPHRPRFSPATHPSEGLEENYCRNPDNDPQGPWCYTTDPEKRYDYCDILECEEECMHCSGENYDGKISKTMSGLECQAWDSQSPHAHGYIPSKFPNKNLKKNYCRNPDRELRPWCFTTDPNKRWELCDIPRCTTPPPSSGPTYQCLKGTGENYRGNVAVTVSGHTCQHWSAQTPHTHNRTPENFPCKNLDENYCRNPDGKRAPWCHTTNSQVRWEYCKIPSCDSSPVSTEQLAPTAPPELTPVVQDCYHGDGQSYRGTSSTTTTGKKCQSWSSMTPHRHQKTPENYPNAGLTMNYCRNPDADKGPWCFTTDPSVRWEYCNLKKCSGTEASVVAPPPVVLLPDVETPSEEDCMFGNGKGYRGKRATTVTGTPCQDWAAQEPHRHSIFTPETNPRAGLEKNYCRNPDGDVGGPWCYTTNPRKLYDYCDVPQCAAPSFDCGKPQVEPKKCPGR
Chain of Plasminogen (P00747 581-810 limits assumed): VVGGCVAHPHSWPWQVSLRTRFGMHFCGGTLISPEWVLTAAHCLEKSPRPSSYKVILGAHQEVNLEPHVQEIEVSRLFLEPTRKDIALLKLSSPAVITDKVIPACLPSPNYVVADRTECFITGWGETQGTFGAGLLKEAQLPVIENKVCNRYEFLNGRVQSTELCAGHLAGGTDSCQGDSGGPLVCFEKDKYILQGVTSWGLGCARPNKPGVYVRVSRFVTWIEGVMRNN
Chain of Plasma kallikrein (P03952 20-390 limits assumed): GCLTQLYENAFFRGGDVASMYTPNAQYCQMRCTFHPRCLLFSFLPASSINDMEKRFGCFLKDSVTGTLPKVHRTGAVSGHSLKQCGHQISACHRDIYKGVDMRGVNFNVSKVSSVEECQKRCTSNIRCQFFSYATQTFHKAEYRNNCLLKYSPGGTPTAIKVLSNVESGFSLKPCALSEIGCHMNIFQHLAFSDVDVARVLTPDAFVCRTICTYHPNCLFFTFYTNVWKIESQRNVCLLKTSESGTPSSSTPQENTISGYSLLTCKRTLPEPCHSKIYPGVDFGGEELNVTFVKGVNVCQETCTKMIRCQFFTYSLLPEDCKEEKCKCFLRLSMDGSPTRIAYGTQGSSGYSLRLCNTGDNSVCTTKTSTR
Chain of Plasma kallikrein (P03952 391-638 limits assumed): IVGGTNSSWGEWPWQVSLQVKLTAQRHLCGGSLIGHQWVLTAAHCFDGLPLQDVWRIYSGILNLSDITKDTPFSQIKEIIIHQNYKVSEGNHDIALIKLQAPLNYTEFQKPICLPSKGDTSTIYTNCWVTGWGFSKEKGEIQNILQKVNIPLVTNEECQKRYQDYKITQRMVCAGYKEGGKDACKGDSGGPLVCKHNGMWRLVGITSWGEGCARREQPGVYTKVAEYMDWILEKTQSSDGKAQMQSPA
Chain of Coagulation factor IX (P00740 47-191 limits assumed): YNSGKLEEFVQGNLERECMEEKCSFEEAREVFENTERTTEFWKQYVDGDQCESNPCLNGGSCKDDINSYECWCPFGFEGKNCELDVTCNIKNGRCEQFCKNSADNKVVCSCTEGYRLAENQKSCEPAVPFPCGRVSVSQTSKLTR
Chain of Coagulation factor IX (P00740 227-461 limits assumed): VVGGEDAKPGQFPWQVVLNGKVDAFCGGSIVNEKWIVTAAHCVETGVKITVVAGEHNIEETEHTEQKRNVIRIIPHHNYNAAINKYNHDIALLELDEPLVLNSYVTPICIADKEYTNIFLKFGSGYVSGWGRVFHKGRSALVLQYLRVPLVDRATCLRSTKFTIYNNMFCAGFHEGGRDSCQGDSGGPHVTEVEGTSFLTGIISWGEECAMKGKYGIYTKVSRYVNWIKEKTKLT
Chain of Prostaglandin G/H synthase 1 (P23219 whole entry): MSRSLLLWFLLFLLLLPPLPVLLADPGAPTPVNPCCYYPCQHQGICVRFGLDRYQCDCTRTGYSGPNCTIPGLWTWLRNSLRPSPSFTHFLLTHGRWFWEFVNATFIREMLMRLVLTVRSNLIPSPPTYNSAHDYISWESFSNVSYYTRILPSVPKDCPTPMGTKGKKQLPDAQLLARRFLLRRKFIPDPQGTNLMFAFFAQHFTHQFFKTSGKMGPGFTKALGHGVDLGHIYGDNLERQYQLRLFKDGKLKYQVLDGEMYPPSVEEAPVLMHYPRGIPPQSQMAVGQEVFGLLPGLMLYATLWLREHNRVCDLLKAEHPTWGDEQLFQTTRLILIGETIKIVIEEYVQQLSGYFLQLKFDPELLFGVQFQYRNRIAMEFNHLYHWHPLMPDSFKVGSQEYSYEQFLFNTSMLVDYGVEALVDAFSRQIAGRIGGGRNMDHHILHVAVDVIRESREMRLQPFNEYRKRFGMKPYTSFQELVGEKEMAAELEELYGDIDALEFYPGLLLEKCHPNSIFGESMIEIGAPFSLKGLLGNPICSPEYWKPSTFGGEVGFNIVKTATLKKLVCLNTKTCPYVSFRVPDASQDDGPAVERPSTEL

CC(C)c1cc(-c2ccc3c(c2)[C@H](N)CO3)cc([C@H](O)Cn2ccc3cccc(C(=O)O)c32)c1
IC50 (Plasma kallikrein): 1 nM | IC50 (Coagulation factor XI): 10 nM | Papp A→B [1]: 0.4 ×10⁻⁶ cm/s | AUC/dose [2]: 3264 nM·h | IC50 (Coagulation factor IX): 1920 nM | IC50 (Prothrombin): 2570 nM | IC50 [3]: 250 nM | IC50 (Plasminogen): 1890 nM | IC50 [4]: 4.3 µM | IC50 [5]: 2400 nM | clearance [6]: 11 mL/min/kg | Vd [7]: 0.57 L/kg | half-life [8]: 224 min | Cmax/dose [9]: 494 nM | Tmax [10]: 1 h | AUC/dose [11]: 260215 nM·h | bioavailability [12]: 100% | Cmax/dose [13]: 26.795 µM | Tmax [14]: 4 h | Cmax/dose [15]: 77 nM | Cmax/dose [16]: 323 nM | AUCt/dose [17]: 1770 nM·h | bioavailability [18]: 10% | bioavailability [19]: 45% | Cmax/dose [20]: 217 nM | Cmax/dose [21]: 504 nM | AUCt/dose [22]: 2200 nM·h | bioavailability [23]: 5% | clearance [24]: 9.4 mL/min/kg | AUC(0-t) [25]: 3.33 µM·h | Vd [26]: 1.3 L/kg | half-life [27]: 384 min | Vd [28]: 0.3 L/kg | half-life [29]: 168 min | IC50 (Bile salt export pump): 28 µM | Activity [30]: 65% | efflux ratio [31]: 21.5 | 2aPTT (Plasma): 1.3 µM | logD (physchem): 2.2
